In patent US6555650B1, “Cyclic analogs of histatins” (priority 1999, dated 2003):
Positions of bridges follow the written chain, without caps; N, C: chain ends. Residues, ends and D or L forms follow the SMILES beside them. No end group written: not given here.

Experiments:
[1] = test system: C. albicans; details: against C. albicans; cited from earlier work
[2] = test system: S. cerevisiae; experiment: fungistatic MIC assay in antifungal agar; format: cell-based; details: for activity after additional deletions at the C-terminal: relative to Db2-121
Method: The compounds of Table 1 were tested for fungistatic activity with an assay based on the work of Gordon, Lapa et.al. (18) with the nonpathogenic yeast S. cerevisiae in which ketoconazole is used as control. A semisolid is prepared to which is added serial dilutions of peptide. This antifungal agar is distributed in a well plate, and the S. Cerevisiae inoculum is then added to each well. Both ketokonoazole and H-5 are used as positive controls and buffer is used as a control blank. Minimum inhibitory concentration MIC, i.e. the concentration of the peptide under test which prevents growth, as observed visually, is recorded for each sample so that low values of MIC indicate potent antifungal compounds.
More specifically, stock peptide solutions (600 microliters or 1 ml) were prepared to 10 times the final concentration of the most concentrated test sample in a sodium phosphate buffer (0.01 M0, pH 7.4). Peptide concentrations were determined by UV absorbance at λ=275. Control blanks were also prepared using 1 ml buffer Five serial dilutions were made in sterile culture tubes with buffer to create a range of peptide concentrations. The final volume in each tube was either 300 microliter or 1 ml. Agar medium (2.7 or 4.5 ml) was added to each tube and mixed. Aliquots (1 ml) of each were added to a 24 well plate to give 6 different concentrations of each peptide per plate. […] A stock solution (10 mg/mL DMSO) was diluted 1:49 with buffer. A range of final concentrations of 20 to 0.16 micrograms/ml was tested. In addition, in later analog assays, H-5 was included as a positive peptide control. Histatin 5 was tested in a range from 200 micromolar to 6.3 micromolar. Other analogs were tested at concentrations anywhere from 200 μM down to 0.14 μM ubtil the analog with lowest MIC concentration was identified.
S. cerevisiae cells grown overnight were centrifuged and washed with a 0.85% saline solution, three times. Cell concentration was adjusted to 85% transmission at λ=530 with saline solution. Cells were further diluted 1:19. Inoculant (10 microL) was added to the peptide-containing medium. The cells were incubated on this medium for 24 hours at 37° C. The fungistatic MIC for these compounds was defined as the minimum concentration required to achieve 100% inhibition after 24 hours.

[3] = S. cerevisiae, minimum concentration for 100% inhibition after 24 hours at 37° C.

Molecule: histatin-5 [Peptide H-5]
- minimum inhibitory concentration (MIC) [1]: 10 µg/mL

Molecule: Arg His His Gly Tyr Cys Arg Lys Phe His Glu Lys His His Cys His Arg Gly Tyr (RHHGYCRKFHEKHHCHRGY; disulfide 6-15 (inferred)) [Db2-179]
- MIC range [2, 3]: 2.5-5

Molecule: Arg His His Cys Tyr Lys Arg Lys Phe His Glu Lys His His Cys His Arg Gly (RHHCYKRKFHEKHHCHRG; also: cyclic analogue, ring not given here) [Db3-19]
- MIC range [2, 3]: 1.3-2.6
- activity after additional deletions at the C-terminal [2]: small loss of activity

Molecule: Arg His His Cys Tyr Lys Arg Lys Phe His Glu Lys His His Cys His Arg (RHHCYKRKFHEKHHCHR; also: cyclic analogue, ring not given here) [Db3-15]
- MIC range [2, 3]: 2.6-5.2
- activity after additional deletions at the C-terminal [2]: small loss of activity

Molecule: Arg His His Cys Trp Lys Arg Lys Phe His Glu Lys His His Cys His Arg Gly Tyr (RHHCWKRKFHEKHHCHRGY; disulfide 4-15 (inferred)) [Db3-67]
- MIC range [2, 3]: 0.67-1.34

Molecule: CC(=O)N1CCN(c2ccc(OCC3COC(Cn4ccnc4)(c4ccc(Cl)cc4Cl)O3)cc2)CC1 (centres unmarked) [Ketoconazole, reference compound]
- MIC range [2, 3]: 4.7

Molecule: N=C(N)NCCC[C@H](NC(=O)[C@H](Cc1c[nH]cn1)NC(=O)[C@@H]1CSSC[C@H](NC(=O)[C@H](Cc2c[nH]cn2)NC(=O)[C@H](Cc2c[nH]cn2)NC(=O)[C@@H](N)CCCNC(=N)N)C(=O)N[C@@H](Cc2ccc(O)cc2)C(=O)N[C@@H](CCCCN)C(=O)N[C@@H](CCCNC(=N)N)C(=O)N[C@@H](CCCCN)C(=O)N[C@@H](Cc2ccccc2)C(=O)N[C@@H](Cc2c[nH]cn2)C(=O)N[C@@H](CCC(=O)O)C(=O)N[C@@H](CCCCN)C(=O)N[C@@H](Cc2c[nH]cn2)C(=O)N[C@@H](Cc2c[nH]cn2)C(=O)N1)C(=O)NCC(=O)N[C@@H](Cc1ccc(O)cc1)C(=O)O [Db2-121] (H-RHHCYKRKFHEKHHCHRGY-OH; disulfide 4-15; N-terminus assumed)
- times more potent than H-5 ([2]; against S. cerevisiae): approximately 100 times
- times more potent than ketoconazole ([2]; against S. cerevisiae): ~10 times

Molecule: Arg His His Cys Tyr Lys Arg Lys Phe His Glu Lys His His Cys His (RHHCYKRKFHEKHHCH; disulfide 4-15 (inferred)) [Db3-25]
- MIC range [2, 3]: >5.2

Molecule: Arg His His Gly Tyr Lys Cys Lys Phe His Glu Lys His His Cys His Arg Gly Tyr (RHHGYKCKFHEKHHCHRGY; disulfide 7-15 (inferred)) [Db2-180]
- MIC range [2, 3]: 1.25-2.5

Molecule: Arg His His Gly Cys Lys Arg Lys Phe His Glu Lys His His Ser Cys Arg Gly Tyr (RHHGCKRKFHEKHHSCRGY; disulfide 5-16 (inferred)) [Db3-11]
- MIC range [2, 3]: 2.5-5

Molecule: RHHKYRKFHEKHHEHRGY [Db3-41]
- MIC range ([2]; fungistatic activity): 0.55 to 1.1 µM

Molecule: Arg His His Gly Cys Lys Arg Lys Phe His Glu Lys His His Cys His Arg Gly Tyr (RHHGCKRKFHEKHHCHRGY; disulfide 5-15 (inferred)) [Db2-178]
- MIC range [2, 3]: 2.5-5

Molecule: Arg His His Cys Tyr Lys Arg Lys Cys His Glu Lys His His Cys His Arg Cys Tyr (RHHCYKRKCHEKHHCHRCY; also: cyclic analogue, ring not given here) [Db2-100]
- MIC range [2, 3]: 0.63-1.25

Molecule: Arg His His Cys Tyr Lys Arg Lys Phe His Glu Lys His His Cys His Arg Gly Tyr [Db3-35] (RHHCYKRKFHEKHHCHRGY; also: cyclic analogue, ring not given here)
- MIC range [2, 3]: 1.3-2.5

Molecule: Arg His His Cys Tyr Lys Arg Lys Phe His Glu Lys His His Cys His Arg Gly Tyr [Db3-53] (RHHCYKRKFHEKHHCHRGY; also: cyclic analogue, ring not given here)
- MIC range [2, 3]: >5

Molecule: RHHCYRKFHEKHHC (cysteine pairing not given here) [Db3-30]
- MIC range [2, 3]: >5.2

Molecule: Arg His His Cys Tyr Lys Arg Lys His His Glu Lys His His Cys His Arg Gly Tyr (RHHCYKRKHHEKHHCHRGY; disulfide 4-15 (inferred)) [Db3-13]
- MIC range [2, 3]: 2.6-5.1
